Experimental data published in US6417225B1, “Prophylactic/therapeutic agents for atherosclerosis” (Chugai Seiyaku Kabushiki Kaisha, priority 1997, dated 2002).

What was measured:
[1] = test system: LDL receptor/apolipoprotein E double hetero-deficient mice; test: Effect on atherosclerosis in an in vivo atherosclerosis model (3): LDL receptor/Apo E hetero-deficient mice; conditions: for Inhibitory effect on arteriosclerosis (in words): LDL receptor/Apo E hetero-deficient mice; for Area of Arteriosclerotic lesions (mm^2): female mice, 0.5% in high-fat diet, 6 months, arcus aorta
Description: Effect on Atherosclerosis in an in vivo Atherosclerosis Model (3)
In order to evaluate the inhibitory effect of the compound of Example 1 on atherosclerosis in an in vivo atherosclerosis model, LDL receptor/apolipoprotein E double hetero-deficient (LDL receptor/Apo E hetero-deficient) mice were used.
One of the remaining two groups similarly received a high-fat feed containing neither probucol nor the compound of Example 1 and was used as a control and the other one group similarly received a normal, chow diet containing neither probucol nor the compound of Example 1.
After administration of the compound for 6 months, the arcus aorta was removed from each of the animals, transversely sectioned and stained with Sudan IV. The area of arteriosclerotic lesions was determined by an image analysis under an optical microscope. The average of the area of arteriosclerotic lesions in the aucus aortae was calculated for each animal. The number of animals used for the evaluation was 2 for the normal feed group and 5-6 for the other groups.

[2] = test system: LDL receptor-deficient mice; test: Effect on formation of xanthoma in an in vivo xanthoma model; conditions: for Inhibitory effect on formation of xanthomas (in words): LDL receptor-deficient mice; for Xanthoma score: 0.5% in high-fat diet, 13 weeks, forefeet and palpebrae, total score
Description: Effect on Formation of Xanthoma in an in vivo Xanthoma Model
In order to evaluate the inhibitory effect of the compound of Example 1 on xanthoma in an in vivo xanthoma model, LDL receptor-deficient mice were used.
One of the remaining two groups similarly received a high-fat feed containing neither probucol nor the compound of Example 1 and was used as a control and the other one group similarly received a normal, chow diet feed containing neither probucol nor the compound of Example 1.
After administration of the compound for 13 weeks, xanthomas were scored in both forefeet and palpebrae based on the appearance thereof and the scores were totalized. The number of animals used for the evaluation was 5 for the normal feed group consisting of female mice and 7-9 for the other groups.

[3] = test system: LDL receptor-deficient mice; test: Effect on atherosclerosis in an in vivo atherosclerosis model (2): LDL receptor-deficient mice; conditions: for Inhibitory effect on arteriosclerosis (in words): LDL receptor-deficient mice; for Area of Arteriosclerotic lesions (mm^2): 0.5% in high-fat diet, 13 weeks, arcus aorta
Description: Effect on Atherosclerosis in an in vivo Atherosclerosis Model (2)
In order to evaluate the inhibitory effect of the compound of Example 1 on atherosclerosis in an in vivo atherosclerosis, LDL receptor-deficient mice were used.
One of the remaining two groups similarly received a high-fat diet containing neither probucol nor the compound of Example 1 and was used as a control and the other one group similarly received a normal, chow diet containing neither probucol nor the compound of Example 1.
After administration of the compound for 13 weeks, the arcus aorta was removed from each of the animals, transversely sectioned and stained with Sudan IV. The area of arteriosclerotic lesions was determined by an image analysis under an optical microscope. The average of the area of arteriosclerotic lesions in the aucus aortae was calculated for each animal. The number of animals used for the evaluation was 5 for the normal chow diet group consisting of female mice and 7-9 for the other groups.

[4] = test system: Watanabe Heritable Hyperlipidemic (WHHL) rabbits; test: Effect on atherosclerosis in an in vivo atherosclerosis model (1): WHHL rabbits; set-up: species or system rabbit; conditions: for Lesions in arch section (%) / Lesions in the whole aorta (%): 6 months
Description: Effect on Atherosclerosis in an in vivo Atherosclerosis Model (1)
In order to evaluate the inhibitory effect of the compound of Example 1 on atherosclerosis in an in vivo atherosclerosis model, Watanabe Heritable Hyperlipidemic (WHHL) rabbits were used.
Specifically, 4 groups of 4 or 5 WHHL rabbits (Kbl: 2 to 3-month-old male) were conditioned for a week, and then 3 groups of them received 1% probucol and 0.2% and 0.5% Example 1 compound contained in a normal chow diet, respectively, by limited feeding (40 g/kg) once a day for 6 months. The other one group similarly received the normal chow diet containing neither probucol nor the compound of Example 1 and was used as a control.
After administration of the compound for 6 months, the aorta was removed from each of the animals and visualized to prepare a photograph of the inside of the aortic sample. White fat deposition area which represents arteriosclerotic lesions was determined by the image analysis on the photograph for each of three parts of the aortic sample (arch, chest and abdomen). From the results, the proportions (percentage) of the fat deposition area to the overall area for the arch section and the whole aorta were obtained. Four or five animals were used for each group for the evaluation.

femoral atheroscleroses = conditions: literature report; cited from earlier work

| Structure (SMILES) | Inhibitory effect on arteriosclerosis (in words) [1] | Area of Arteriosclerotic lesions (mm^2) [1] [mm^2] | Inhibitory effect on formation of xanthomas (in words) [2] | Xanthoma score ([2]; female mice) | Xanthoma score ([2]; male mice) | Inhibitory effect on arteriosclerosis (in words) [3] | Area of Arteriosclerotic lesions (mm^2) ([3]; female mice) | Area of Arteriosclerotic lesions (mm^2) ([3]; male mice) | Inhibitory effect on atherosclerosis (in words) [4] | Lesions in arch section (%) ([4]; 0.2% in normal chow diet) | Lesions in the whole aorta (%) ([4]; 0.2% in normal chow diet) | Lesions in arch section (%) ([4]; 0.5% in normal chow diet) | Lesions in the whole aorta (%) ([4]; 0.5% in normal chow diet) | Atherosclerosis inhibitory effect compared with probucol (in words) ([4]; at a half of the dosage of probucol) | Therapeutic effect on atherosclerosis in clinical tests (in words) (femoral atheroscleroses) | Lesions in the whole aorta (%) ([4]; 1% in normal chow diet) | Lesions in arch section (%) ([4]; 1% in normal chow diet, fat deposition area / overall area) |
| --- | --- | --- | --- | --- | --- | --- | --- | --- | --- | --- | --- | --- | --- | --- | --- | --- | --- |
| CCCCCC1(CCCCC)Cc2c(cc(C(C)(C)C)c(O)c2C(C)(C)C)O1 [Example 1, 4,6-di-t-butyl-2,2-di-n-pentyl-5-hydroxy-2,3-dihydrobenzofuran] | strong inhibitory effect | 0.150 | strong inhibitory effect | 1.25 ± 0.25 | 0.29 ± 0.20 | exhibits an inhibitory effect | 0.192 | 0.185 | strong inhibitory effect | 65.7 ± 3.7 | 44.3 ± 6.8 | 52.6 ± 7.4 | 37.4 ± 5.7 | comparable to that of probucol | – | – | – |
| CC(C)(Sc1cc(C(C)(C)C)c(O)c(C(C)(C)C)c1)Sc1cc(C(C)(C)C)c(O)c(C(C)(C)C)c1 [Probucol, probucol, reference compound] | not observed | 0.451 | not observed | 3.43 ± 0.30 | 3.13 ± 0.30 | not observed | 0.245 | 0.376 | – | – | – | – | – | – | no therapeutic effect | 25.2 ± 2.6 | 53.9 ± 5.6 |
